The experiment relates to MDA-MB-231 xenografts. The experiment is described as follows: Therapeutic efficacy in MDA-MB-231 xenografts. It is filed as in vivo, mouse. Particulars: tail vein injection on days 0 and 3 (29.6 MBq each for radioactive groups), end of treatment (26 days), mean ± SD, n = 5. On the procedure: Five-week-old female athymic BALB/c nude mice (Shanghai Slaccas Experiment Animal Corp., Shanghai, China) were used in our study. Mouse xenograft models of MDA-MB-231, 4T1, and SK-BR-3 cells were produced by the subcutaneous injection of 5 × 10^6 cells (suspended in 150 μL PBS) into the right axilla of each mouse. The mice were used in subsequent experiments when tumor diameter reached 0.5-0.9 cm. The study protocol was approved by the institutional review board and by the Experimental Animal Center of Ruijin Hospital affiliated to the School of Medicine of Shanghai Jiao Tong University.
Twenty mice-bearing MDA-MB-231 human BC xenografts were divided into four groups of five animals. Group 1 was injected with ^131I-Var3-pHLIP in the tail vein on days 0 and 3 (29.6 MBq each day). Groups 2, 3, and 4 were injected with the same volume of Var3-pHLIP, ^131I (29.6 MBq), and saline solution, respectively. Tumor size was measured every 2 to 4 days postinjection (pi) for 26 days using a caliper. Tumor volumes (V, […]) were calculated using the formula: V = (a × b^2)/2, where a and b are tumor length and width, respectively. Relative tumor volumes were calculated as V/V0 (V0, tumor volume before treatment). The body weight of mice was also determined.

We go through 1 sequence from article PMC9281440, “In Vivo Distribution and Therapeutic Efficacy of Radioiodine-Labeled pH-Low Insertion Peptide Variant 3 in a Mouse Model of Breast Cancer” (Molecular Imaging, 2022).

Take “ACDDQNPWRAYLDLLFPTDTLLLDLLWK [Var3-pHLIP]”: the “relative tumor volume (V/V0)” value was 4.17 ± 0.51.
